In PMC12136037, “Type II kinase inhibitors that target Parkinson’s disease–associated LRRK2” (Science Advances, 2025):
pEC50: −log10 of the molar value. Where “and” joins values, the source holds several entries; their conditions need not be identical. Equal entries are not always repeated. Where two headings read alike, the source gives them in different places.

Tests used:
Experiment in all cases: nanoBRET off-target validation
Format in all cases: cell-based
DYRK2 = target: T1, DYRK2 (Homo sapiens, UniProt Q92630); conditions: DYRK2, two replicates
T1 construct: host or cells: HEK293T (ATCC CRL-3216)
T1 sequence (Q92630 1-601): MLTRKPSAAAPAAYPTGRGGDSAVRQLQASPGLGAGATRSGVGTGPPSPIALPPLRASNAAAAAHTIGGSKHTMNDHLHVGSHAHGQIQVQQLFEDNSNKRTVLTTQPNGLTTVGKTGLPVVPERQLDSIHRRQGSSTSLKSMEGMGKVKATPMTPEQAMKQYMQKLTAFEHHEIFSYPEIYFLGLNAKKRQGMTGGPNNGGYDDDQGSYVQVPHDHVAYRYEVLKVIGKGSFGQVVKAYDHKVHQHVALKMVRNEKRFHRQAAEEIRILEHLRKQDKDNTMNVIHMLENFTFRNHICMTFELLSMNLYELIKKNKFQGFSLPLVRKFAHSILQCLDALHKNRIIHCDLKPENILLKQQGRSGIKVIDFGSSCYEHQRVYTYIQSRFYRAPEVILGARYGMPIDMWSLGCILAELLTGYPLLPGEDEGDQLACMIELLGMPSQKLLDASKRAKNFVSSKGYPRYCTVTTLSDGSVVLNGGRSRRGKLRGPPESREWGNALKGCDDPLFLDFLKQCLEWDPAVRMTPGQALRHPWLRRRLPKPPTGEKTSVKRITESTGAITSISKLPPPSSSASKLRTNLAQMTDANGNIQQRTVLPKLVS
Method: (§1) The assay was performed as described previously ([61]). In brief, full-length kinases as listed in table S6 were obtained as plasmids cloned in frame with terminal NanoLuc-fusion (gift from Promega; table S6). […] Serially diluted inhibitor and corresponding tracer as listed in table S6 at the Tracer KD concentration taken from TracerDB (tracerdb.org) ([62]) were pipetted into white 384-well plates (Greiner, 781207) using an ECHO acoustic dispenser (Labcyte). The corresponding protein-transfected cells were added and reseeded at a density of 2 × 10^5 cells/ml after trypsinization and resuspending in Opti-MEM without phenol red (Life Technologies). The system was allowed to equilibrate for 3 hours at 37°C/5% CO2 before bioluminescence resonance energy transfer (BRET) measurements. To measure BRET, NanoBRET NanoGlo Substrate + extracellular NanoLuc Inhibitor (Promega, N2540) was added as per the manufacturer’s protocol, and filtered luminescence was measured on a PHERAstar plate reader (BMG Labtech) equipped with a luminescence filter pair [450-nm BP filter (donor) and 610-nm LP filter (acceptor)]. […] (For step-by-step protocol, see www.eubopen.org/sites/www.eubopen.org/files/attachments/2021/NanoBRET-IC50_v1_0.pdf.)

STK10 = target: T2, STK10 (Homo sapiens, UniProt O94804)
T2 construct: host or cells: HEK293T (ATCC CRL-3216)
Method: as §1

CDKL1 = target: T3, CDKL1 (Homo sapiens, UniProt Q00532)
T3 construct: host or cells: HEK293T (ATCC CRL-3216)
Method: as §1

T2 sequence (O94804 whole entry): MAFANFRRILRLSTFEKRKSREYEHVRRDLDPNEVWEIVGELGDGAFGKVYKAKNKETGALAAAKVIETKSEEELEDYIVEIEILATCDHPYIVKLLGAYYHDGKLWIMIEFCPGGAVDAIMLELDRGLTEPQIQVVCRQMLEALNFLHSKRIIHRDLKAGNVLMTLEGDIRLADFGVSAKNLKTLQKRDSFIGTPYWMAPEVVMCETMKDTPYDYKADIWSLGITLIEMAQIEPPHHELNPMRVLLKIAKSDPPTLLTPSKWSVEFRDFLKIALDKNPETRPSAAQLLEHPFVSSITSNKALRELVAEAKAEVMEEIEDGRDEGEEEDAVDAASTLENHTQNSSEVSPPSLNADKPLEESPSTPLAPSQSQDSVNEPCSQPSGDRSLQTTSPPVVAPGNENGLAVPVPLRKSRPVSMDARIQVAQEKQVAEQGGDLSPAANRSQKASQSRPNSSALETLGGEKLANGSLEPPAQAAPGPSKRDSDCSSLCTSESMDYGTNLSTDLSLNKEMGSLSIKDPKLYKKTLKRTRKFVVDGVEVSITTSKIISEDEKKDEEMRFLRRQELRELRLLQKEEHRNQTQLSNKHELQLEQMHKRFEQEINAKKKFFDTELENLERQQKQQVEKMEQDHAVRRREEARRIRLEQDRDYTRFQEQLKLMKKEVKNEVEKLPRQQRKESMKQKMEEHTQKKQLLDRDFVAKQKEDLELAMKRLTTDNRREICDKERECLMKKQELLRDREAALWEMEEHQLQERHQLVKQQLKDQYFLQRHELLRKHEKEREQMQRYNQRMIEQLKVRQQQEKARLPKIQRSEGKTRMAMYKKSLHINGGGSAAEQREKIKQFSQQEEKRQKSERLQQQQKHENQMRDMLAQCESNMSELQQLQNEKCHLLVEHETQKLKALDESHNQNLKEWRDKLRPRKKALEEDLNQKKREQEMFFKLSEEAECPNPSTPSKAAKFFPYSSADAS
T3 sequence (Q00532 whole entry): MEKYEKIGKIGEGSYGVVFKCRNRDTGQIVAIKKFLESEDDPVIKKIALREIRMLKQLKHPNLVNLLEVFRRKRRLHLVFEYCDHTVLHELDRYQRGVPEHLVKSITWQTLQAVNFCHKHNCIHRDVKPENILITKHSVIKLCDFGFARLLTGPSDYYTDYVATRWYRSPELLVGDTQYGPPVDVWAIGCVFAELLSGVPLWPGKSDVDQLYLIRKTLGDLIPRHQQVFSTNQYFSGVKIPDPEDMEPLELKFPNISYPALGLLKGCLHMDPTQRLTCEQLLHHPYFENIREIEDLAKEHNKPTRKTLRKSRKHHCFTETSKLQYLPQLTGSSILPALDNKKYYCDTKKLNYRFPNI

CCSc1nc(NC)c2c(-c3cccc(NC(=O)Nc4cc(C(C)(C)C)nn4-c4ccc(C)cc4)c3)c[nH]c2n1 [Compound 32]
nanoBRET response normalized to 0% (no tracer) and 100% (no inhibitor) control (DYRK2; inhibitor 500 nM, listed as RN341, 0.5 µM): 90.6654%
remaining nanoBRET tracer signal (% of no-inhibitor control) at 0.5 µM (DYRK2; inhibitor 500 nM, read-out: nanoBRET response normalized to 0% (no tracer) and 100% (no inhibitor) control): 98.4%
nanoBRET response normalized to 0% (no tracer) and 100% (no inhibitor) control (DYRK2; inhibitor 2500 nM, listed as RN341, […]): 86.4231%
remaining nanoBRET tracer signal (% of no-inhibitor control) at […] (DYRK2; inhibitor 2500 nM, read-out: nanoBRET response normalized to 0% (no tracer) and 100% (no inhibitor) control): 88.8%
nanoBRET response normalized to 0% (no tracer) and 100% (no inhibitor) control (DYRK2; inhibitor 5000 nM, listed as RN341, 5 µM): 92.7606%
remaining nanoBRET tracer signal (% of no-inhibitor control) at 5 µM (DYRK2; inhibitor 5000 nM, read-out: nanoBRET response normalized to 0% (no tracer) and 100% (no inhibitor) control): 83.2%
nanoBRET response normalized to 0% (no tracer) and 100% (no inhibitor) control (DYRK2; inhibitor 25000 nM, listed as RN341, 25 µM): 54.6216%
remaining nanoBRET tracer signal (% of no-inhibitor control) at 25 µM (DYRK2; inhibitor 25000 nM, read-out: nanoBRET response normalized to 0% (no tracer) and 100% (no inhibitor) control): 47.6%
nanoBRET response normalized to 0% (no tracer) and 100% (no inhibitor) control (STK10; STK10, inhibitor 8 nM, two replicates, listed as RN341, 0.008 µM): 93.5752%
remaining activity at 0.008 µM (STK10; STK10, inhibitor 8 nM, two replicates, read-out: nanoBRET response normalized to 0% (no tracer) and 100% (no inhibitor) control): 98.7%
nanoBRET response normalized to 0% (no tracer) and 100% (no inhibitor) control (STK10; STK10, inhibitor 16 nM, two replicates, listed as RN341, 0.016 µM): 98.653%
remaining activity at 0.016 µM (STK10; STK10, inhibitor 16 nM, two replicates, read-out: nanoBRET response normalized to 0% (no tracer) and 100% (no inhibitor) control): 95%
nanoBRET response normalized to 0% (no tracer) and 100% (no inhibitor) control (STK10; STK10, inhibitor 50 nM, two replicates, listed as RN341, 0.05 µM): 90.2983%
remaining activity at 0.05 µM (STK10; STK10, inhibitor 50 nM, two replicates, read-out: nanoBRET response normalized to 0% (no tracer) and 100% (no inhibitor) control): 93.4%
nanoBRET response normalized to 0% (no tracer) and 100% (no inhibitor) control (STK10; STK10, inhibitor 250 nM, two replicates, listed as RN341, […]): 75.9451%
remaining activity at […] (STK10; STK10, inhibitor 250 nM, two replicates, read-out: nanoBRET response normalized to 0% (no tracer) and 100% (no inhibitor) control): 77.3%
nanoBRET response normalized to 0% (no tracer) and 100% (no inhibitor) control (STK10; STK10, inhibitor 500 nM, two replicates, listed as RN341, 0.5 µM): 59.4137%
remaining activity at 0.5 µM (STK10; STK10, inhibitor 500 nM, two replicates, read-out: nanoBRET response normalized to 0% (no tracer) and 100% (no inhibitor) control): 61.4%
nanoBRET response normalized to 0% (no tracer) and 100% (no inhibitor) control (STK10; STK10, inhibitor 2500 nM, two replicates, listed as RN341, […]): 44.5595%
remaining activity at […] (STK10; STK10, inhibitor 2500 nM, two replicates, read-out: nanoBRET response normalized to 0% (no tracer) and 100% (no inhibitor) control): 60.9%
nanoBRET response normalized to 0% (no tracer) and 100% (no inhibitor) control (STK10; STK10, inhibitor 5000 nM, two replicates, listed as RN341, 5 µM): 40.1132%
remaining activity at 5 µM (STK10; STK10, inhibitor 5000 nM, two replicates, read-out: nanoBRET response normalized to 0% (no tracer) and 100% (no inhibitor) control): 58.5%
nanoBRET response normalized to 0% (no tracer) and 100% (no inhibitor) control (STK10; STK10, inhibitor 25000 nM, two replicates, listed as RN341, 25 µM): 8.0832%
remaining activity at 25 µM (STK10; STK10, inhibitor 25000 nM, two replicates, read-out: nanoBRET response normalized to 0% (no tracer) and 100% (no inhibitor) control): 6.79%
pEC50 (STK10; in cellulo nanoBRET, 293T cells): > 5.30 and 5.82
pEC50 (CDKL1): 4.77
remaining activity at 0.008 µM (CDKL1; CDKL1, inhibitor 8 nM, two replicates, read-out: nanoBRET response normalized to 0% (no tracer) and 100% (no inhibitor) control): 102% and 110%
nanoBRET response normalized to 0% (no tracer) and 100% (no inhibitor) control (CDKL1; CDKL1, inhibitor 16 nM, two replicates, listed as RN341, 0.016 µM): 102.251%
remaining activity at 0.016 µM (CDKL1; CDKL1, inhibitor 16 nM, two replicates, read-out: nanoBRET response normalized to 0% (no tracer) and 100% (no inhibitor) control): 96.8%
remaining activity at 0.05 µM (CDKL1; CDKL1, inhibitor 50 nM, two replicates, read-out: nanoBRET response normalized to 0% (no tracer) and 100% (no inhibitor) control): 106% and 102%
nanoBRET response normalized to 0% (no tracer) and 100% (no inhibitor) control (CDKL1; CDKL1, inhibitor 250 nM, two replicates, listed as RN341, […]): 106.285%
remaining activity at […] (CDKL1; CDKL1, inhibitor 250 nM, two replicates, read-out: nanoBRET response normalized to 0% (no tracer) and 100% (no inhibitor) control): 116%
nanoBRET response normalized to 0% (no tracer) and 100% (no inhibitor) control (CDKL1; CDKL1, inhibitor 500 nM, two replicates, listed as RN341, 0.5 µM): 96.8094%
remaining activity at 0.5 µM (CDKL1; CDKL1, inhibitor 500 nM, two replicates, read-out: nanoBRET response normalized to 0% (no tracer) and 100% (no inhibitor) control): 106%
nanoBRET response normalized to 0% (no tracer) and 100% (no inhibitor) control (CDKL1; CDKL1, inhibitor 2500 nM, two replicates, listed as RN341, […]): 88.1398%
remaining activity at […] (CDKL1; CDKL1, inhibitor 2500 nM, two replicates, read-out: nanoBRET response normalized to 0% (no tracer) and 100% (no inhibitor) control): 91%
nanoBRET response normalized to 0% (no tracer) and 100% (no inhibitor) control (CDKL1; CDKL1, inhibitor 5000 nM, two replicates, listed as RN341, 5 µM): 77.8643%
remaining activity at 5 µM (CDKL1; CDKL1, inhibitor 5000 nM, two replicates, read-out: nanoBRET response normalized to 0% (no tracer) and 100% (no inhibitor) control): 74.8%
nanoBRET response normalized to 0% (no tracer) and 100% (no inhibitor) control (CDKL1; CDKL1, inhibitor 25000 nM, two replicates, listed as RN341, 25 µM): 39.2489%
remaining activity at 25 µM (CDKL1; CDKL1, inhibitor 25000 nM, two replicates, read-out: nanoBRET response normalized to 0% (no tracer) and 100% (no inhibitor) control): 46.9%
